{
  "source": "ChEMBL document CHEMBL3044818",
  "about": "“Fungicide resistance status in French populations of the wheat eyespot fungi Oculimacula acuformis and Oculimacula yallundae” (Pest Manag Sci, 2013)",
  "data": [
    {"test_system": "Oculimacula yallundae", "experiment": "Resistance index, ratio of EC50 for sterol 14alpha-demethylation inhibitor-resistant Oculimacula yallundae TriR2 to EC50 for wild type Oculimacula yallundae TriS by mycelial growth inhibition assay", "assay_type": "functional", "settings": "not given", "values": [
      {"smiles": "CCCN(CCOc1c(Cl)cc(Cl)cc1Cl)C(=O)n1ccnc1", "note": "[PROCHLORAZ]", "Ratio EC50": 30},
      {"smiles": "CC(C1CC1)C(O)(Cn1cncn1)c1ccc(Cl)cc1", "note": "(stereo unspecified) [CYPROCONAZOLE]", "Ratio EC50": 17}
    ]},
    {"test_system": "Oculimacula yallundae", "experiment": "Resistance index, ratio of EC50 for sterol 14alpha-demethylation inhibitor-resistant Oculimacula yallundae TriR2 to EC50 for sterol 14alpha-demethylation inhibitor-resistant Oculimacula yallundae TriR1 by mycelial growth inhibition assay", "assay_type": "functional", "settings": "not given", "values": [
      {"smiles": "CCCN(CCOc1c(Cl)cc(Cl)cc1Cl)C(=O)n1ccnc1", "note": "[PROCHLORAZ]", "Ratio EC50": 20},
      {"smiles": "CC(C1CC1)C(O)(Cn1cncn1)c1ccc(Cl)cc1", "note": "(stereo unspecified) [CYPROCONAZOLE]", "Ratio EC50": 0.7}
    ]},
    {"test_system": "Oculimacula yallundae", "experiment": "Resistance index, ratio of EC50 for sterol 14alpha-demethylation inhibitor-resistant Oculimacula yallundae MDR to EC50 for wild type Oculimacula yallundae TriS by mycelial growth inhibition assay", "assay_type": "functional", "settings": "not given", "values": [
      {"smiles": "CCCN(CCOc1c(Cl)cc(Cl)cc1Cl)C(=O)n1ccnc1", "note": "[PROCHLORAZ]", "Ratio EC50": 3},
      {"smiles": "CC(C1CC1)C(O)(Cn1cncn1)c1ccc(Cl)cc1", "note": "(stereo unspecified) [CYPROCONAZOLE]", "Ratio EC50": 20}
    ]},
    {"test_system": "Oculimacula yallundae", "experiment": "Resistance index, ratio of EC50 for prochloraz-resistant Oculimacula yallundae isolate ProR1 to EC50 for prochloraz-susceptible Oculimacula yallundae isolate ProS by germ tube elongation inhibition assay", "assay_type": "functional", "settings": "not given", "values": [
      {"smiles": "CCCN(CCOc1c(Cl)cc(Cl)cc1Cl)C(=O)n1ccnc1", "note": "[PROCHLORAZ]", "Ratio EC50": 63},
      {"smiles": "CC(C1CC1)C(O)(Cn1cncn1)c1ccc(Cl)cc1", "note": "(stereo unspecified) [CYPROCONAZOLE]", "Ratio EC50": 0.5}
    ]},
    {"test_system": "Oculimacula yallundae", "experiment": "Resistance index, ratio of EC50 for prochloraz-resistant Oculimacula yallundae isolate ProR2 to EC50 for prochloraz-susceptible Oculimacula yallundae isolate ProS by mycelial growth inhibition assay", "assay_type": "functional", "settings": "not given", "values": [
      {"smiles": "CCCN(CCOc1c(Cl)cc(Cl)cc1Cl)C(=O)n1ccnc1", "note": "[PROCHLORAZ]", "Ratio EC50": 25}
    ]},
    {"test_system": "Oculimacula yallundae", "experiment": "Resistance index, ratio of EC50 for prochloraz-resistant Oculimacula yallundae isolate ProR1 to EC50 for prochloraz-susceptible Oculimacula yallundae isolate ProS by mycelial growth inhibition assay", "assay_type": "functional", "settings": "not given", "values": [
      {"smiles": "CCCN(CCOc1c(Cl)cc(Cl)cc1Cl)C(=O)n1ccnc1", "note": "[PROCHLORAZ]", "Ratio EC50": 25}
    ]},
    {"test_system": "Oculimacula yallundae", "experiment": "Fungicidal activity against prochloraz-susceptible Oculimacula yallundae isolate ProS assessed as inhibition of germ tube elongation incubated at 19 degC in dark for 48 hr", "assay_type": "functional, organism-based", "settings": "not given", "units": {"EC50": "µg/mL"}, "values": [
      {"smiles": "CCCN(CCOc1c(Cl)cc(Cl)cc1Cl)C(=O)n1ccnc1", "note": "[PROCHLORAZ]", "EC50": 0.004},
      {"smiles": "CC(C1CC1)C(O)(Cn1cncn1)c1ccc(Cl)cc1", "note": "(stereo unspecified) [CYPROCONAZOLE]", "EC50": 3}
    ]},
    {"test_system": "Oculimacula yallundae", "experiment": "Fungicidal activity against prochloraz-susceptible Oculimacula yallundae isolate ProS assessed as inhibition of mycelial growth in presence of 10 g glucose incubated at 19 degC in dark for 4 weeks", "assay_type": "functional, organism-based", "settings": "672 h", "units": {"EC50": "µg/mL"}, "values": [
      {"smiles": "CCCN(CCOc1c(Cl)cc(Cl)cc1Cl)C(=O)n1ccnc1", "note": "[PROCHLORAZ]", "EC50": 0.04}
    ]},
    {"test_system": "Oculimacula yallundae", "experiment": "Resistance index, ratio of EC50 for sterol 14alpha-demethylation inhibitor-resistant Oculimacula yallundae MDR to EC50 for sterol 14alpha-demethylation inhibitor-resistant Oculimacula yallundae TriR1 by germ tube elongation assay", "assay_type": "functional", "settings": "not given", "values": [
      {"smiles": "CCCN(CCOc1c(Cl)cc(Cl)cc1Cl)C(=O)n1ccnc1", "note": "[PROCHLORAZ]", "Ratio EC50": 71},
      {"smiles": "CC(C1CC1)C(O)(Cn1cncn1)c1ccc(Cl)cc1", "note": "(stereo unspecified) [CYPROCONAZOLE]", "Ratio EC50": 1}
    ]},
    {"test_system": "Oculimacula yallundae", "experiment": "Resistance index, ratio of EC50 for sterol 14alpha-demethylation inhibitor-resistant Oculimacula yallundae MDR to EC50 for wild type Oculimacula yallundae TriS by germ tube elongation assay", "assay_type": "functional", "settings": "not given", "values": [
      {"smiles": "CCCN(CCOc1c(Cl)cc(Cl)cc1Cl)C(=O)n1ccnc1", "note": "[PROCHLORAZ]", "Ratio EC50": 100},
      {"smiles": "CC(C1CC1)C(O)(Cn1cncn1)c1ccc(Cl)cc1", "note": "(stereo unspecified) [CYPROCONAZOLE]", "Ratio EC50": 160}
    ]},
    {"test_system": "Oculimacula yallundae", "experiment": "Resistance index, ratio of EC50 for sterol 14alpha-demethylation inhibitor-resistant Oculimacula yallundae TriR2 to EC50 for sterol 14alpha-demethylation inhibitor-resistant Oculimacula yallundae TriR1 by germ tube elongation assay", "assay_type": "functional", "settings": "not given", "values": [
      {"smiles": "CCCN(CCOc1c(Cl)cc(Cl)cc1Cl)C(=O)n1ccnc1", "note": "[PROCHLORAZ]", "Ratio EC50": 171},
      {"smiles": "CC(C1CC1)C(O)(Cn1cncn1)c1ccc(Cl)cc1", "note": "(stereo unspecified) [CYPROCONAZOLE]", "Ratio EC50": 0.6}
    ]},
    {"test_system": "Oculimacula yallundae", "experiment": "Resistance index, ratio of EC50 for sterol 14alpha-demethylation inhibitor-resistant Oculimacula yallundae TriR2 to EC50 for wild type Oculimacula yallundae TriS by germ tube elongation assay", "assay_type": "functional", "settings": "not given", "values": [
      {"smiles": "CCCN(CCOc1c(Cl)cc(Cl)cc1Cl)C(=O)n1ccnc1", "note": "[PROCHLORAZ]", "Ratio EC50": 240},
      {"smiles": "CC(C1CC1)C(O)(Cn1cncn1)c1ccc(Cl)cc1", "note": "(stereo unspecified) [CYPROCONAZOLE]", "Ratio EC50": 100}
    ]},
    {"test_system": "Oculimacula yallundae", "experiment": "Resistance index, ratio of EC50 for sterol 14alpha-demethylation inhibitor-resistant Oculimacula yallundae TriR1 to EC50 for wild type Oculimacula yallundae TriS by germ tube elongation assay", "assay_type": "functional", "settings": "not given", "values": [
      {"smiles": "CCCN(CCOc1c(Cl)cc(Cl)cc1Cl)C(=O)n1ccnc1", "note": "[PROCHLORAZ]", "Ratio EC50": 1.4},
      {"smiles": "CC(C1CC1)C(O)(Cn1cncn1)c1ccc(Cl)cc1", "note": "(stereo unspecified) [CYPROCONAZOLE]", "Ratio EC50": 160}
    ]},
    {"test_system": "Oculimacula yallundae", "experiment": "Resistance index, ratio of EC50 for sterol 14alpha-demethylation inhibitor-resistant Oculimacula yallundae MDR to EC50 for sterol 14alpha-demethylation inhibitor-resistant Oculimacula yallundae TriR1 by mycelial growth inhibition assay", "assay_type": "functional", "settings": "not given", "values": [
      {"smiles": "CCCN(CCOc1c(Cl)cc(Cl)cc1Cl)C(=O)n1ccnc1", "note": "[PROCHLORAZ]", "Ratio EC50": 2},
      {"smiles": "CC(C1CC1)C(O)(Cn1cncn1)c1ccc(Cl)cc1", "note": "(stereo unspecified) [CYPROCONAZOLE]", "Ratio EC50": 0.9}
    ]},
    {"test_system": "Oculimacula yallundae", "experiment": "Resistance index, ratio of EC50 for sterol 14alpha-demethylation inhibitor-resistant Oculimacula yallundae TriR1 to EC50 for wild type Oculimacula yallundae TriS by mycelial growth inhibition assay", "assay_type": "functional", "settings": "not given", "values": [
      {"smiles": "CCCN(CCOc1c(Cl)cc(Cl)cc1Cl)C(=O)n1ccnc1", "note": "[PROCHLORAZ]", "Ratio EC50": 1.5},
      {"smiles": "CC(C1CC1)C(O)(Cn1cncn1)c1ccc(Cl)cc1", "note": "(stereo unspecified) [CYPROCONAZOLE]", "Ratio EC50": 23}
    ]},
    {"test_system": "not listed separately", "experiment": "Selectivity index, ratio of EC50 for Oculimacula acuformis to EC50 for Oculimacula yallundae in presence of 10 g glucose by mycelial growth inhibition assay", "assay_type": "functional", "settings": "not given", "values": [
      {"smiles": "CCCN(CCOc1c(Cl)cc(Cl)cc1Cl)C(=O)n1ccnc1", "note": "[PROCHLORAZ]", "Ratio EC50": 0.8},
      {"smiles": "CC(C1CC1)C(O)(Cn1cncn1)c1ccc(Cl)cc1", "note": "(stereo unspecified) [CYPROCONAZOLE]", "Ratio EC50": 40}
    ]},
    {"test_system": "Oculimacula yallundae", "experiment": "Fungicidal activity against Oculimacula yallundae assessed as inhibition of mycelial growth in presence of 10 g glucose incubated at 19 degC in dark for 4 weeks", "assay_type": "functional, organism-based", "settings": "672 h", "units": {"EC50": "µg/mL"}, "values": [
      {"smiles": "CCCN(CCOc1c(Cl)cc(Cl)cc1Cl)C(=O)n1ccnc1", "note": "[PROCHLORAZ]", "EC50": 0.05},
      {"smiles": "CC(C1CC1)C(O)(Cn1cncn1)c1ccc(Cl)cc1", "note": "(stereo unspecified) [CYPROCONAZOLE]", "EC50": 0.3}
    ]},
    {"test_system": "Oculimacula acuformis", "experiment": "Fungicidal activity against Oculimacula acuformis assessed as inhibition of mycelial growth in presence of 10 g glucose incubated at 19 degC in dark for 4 weeks", "assay_type": "functional, organism-based", "settings": "672 h", "units": {"EC50": "µg/mL"}, "values": [
      {"smiles": "CCCN(CCOc1c(Cl)cc(Cl)cc1Cl)C(=O)n1ccnc1", "note": "[PROCHLORAZ]", "EC50": 0.04},
      {"smiles": "CC(C1CC1)C(O)(Cn1cncn1)c1ccc(Cl)cc1", "note": "(stereo unspecified) [CYPROCONAZOLE]", "EC50": 12}
    ]},
    {"test_system": "not listed separately", "experiment": "Selectivity index, ratio of EC50 for Oculimacula acuformis to EC50 for Oculimacula yallundae by germ tube elongation inhibition assay", "assay_type": "functional", "settings": "not given", "values": [
      {"smiles": "CCCN(CCOc1c(Cl)cc(Cl)cc1Cl)C(=O)n1ccnc1", "note": "[PROCHLORAZ]", "Ratio EC50": 0.8},
      {"smiles": "CC(C1CC1)C(O)(Cn1cncn1)c1ccc(Cl)cc1", "note": "(stereo unspecified) [CYPROCONAZOLE]", "Ratio EC50": 60}
    ]},
    {"test_system": "Oculimacula yallundae", "experiment": "Fungicidal activity against Oculimacula yallundae assessed as inhibition of germ tube elongation incubated at 19 degC in dark for 48 hr", "assay_type": "functional, organism-based", "settings": "not given", "units": {"EC50": "µg/mL"}, "values": [
      {"smiles": "CCCN(CCOc1c(Cl)cc(Cl)cc1Cl)C(=O)n1ccnc1", "note": "[PROCHLORAZ]", "EC50": 0.005},
      {"smiles": "CC(C1CC1)C(O)(Cn1cncn1)c1ccc(Cl)cc1", "note": "(stereo unspecified) [CYPROCONAZOLE]", "EC50": 0.05}
    ]},
    {"test_system": "Oculimacula acuformis", "experiment": "Fungicidal activity against Oculimacula acuformis assessed as inhibition of germ tube elongation incubated at 19 degC in dark for 48 hr", "assay_type": "functional, organism-based", "settings": "not given", "units": {"EC50": "µg/mL"}, "values": [
      {"smiles": "CCCN(CCOc1c(Cl)cc(Cl)cc1Cl)C(=O)n1ccnc1", "note": "[PROCHLORAZ]", "EC50": 0.004},
      {"smiles": "CC(C1CC1)C(O)(Cn1cncn1)c1ccc(Cl)cc1", "note": "(stereo unspecified) [CYPROCONAZOLE]", "EC50": 3}
    ]},
    {"test_system": "Oculimacula yallundae", "experiment": "Resistance index, ratio of EC50 for prochloraz-resistant Oculimacula yallundae isolate ProR2 to EC50 for prochloraz-susceptible Oculimacula yallundae isolate ProS by germ tube elongation inhibition assay", "assay_type": "functional", "settings": "not given", "values": [
      {"smiles": "CCCN(CCOc1c(Cl)cc(Cl)cc1Cl)C(=O)n1ccnc1", "note": "[PROCHLORAZ]", "Ratio EC50": 75},
      {"smiles": "CC(C1CC1)C(O)(Cn1cncn1)c1ccc(Cl)cc1", "note": "(stereo unspecified) [CYPROCONAZOLE]", "Ratio EC50": 0.8}
    ]}
  ]
}
